Patent US20090137686A1, “Treatment of Ophthalmic Diseases” (priority 2005, published 2009)

System: IFNγ secretion in whole blood stimulated with heat-killed Staphylococcus epidermidis
Assay: in vitro whole blood assay stimulated with Staphylococcus epidermidis, measuring IFNγ
Type: cell-based
Conditions: 24 hours; for inhibitory activity of IFNg secretion resulting from Staphylococcus epidermidis stimulation: IFNγ by ELISA; for IFNγ concentration: at 62.5 nMol test compound, cut from 4500 pg/ml; for inhibition of IFNγ: lowest concentration of 62.5 nMol
From the text: The following experimental work illustrates the invention. This involves an in vitro whole blood assay stimulated with Staphylococcus epidermidis, measuring IFNγ. IFNγ as a key mediator in pathological processes in ocular inflammatory disease, namely age-related macular degeneration (Penfold et al, 2002) and proliferative vitreoretinopathy (El-Ghrably et al, 2001). 1:100 diluted heat-killed Staphylococcus epidermidis in conjunction with various concentrations of test compound (in a stock DMSO solution) was added to a 100-fold volume of whole blood. After 24 hours, whole blood was diluted 1:4 and IFNγ was measured by enzyme-linked immuno-absorptive assay.

Structure (SMILES)	inhibitory activity of IFNg secretion resulting from Staphylococcus epidermidis stimulation	IFNγ concentration	inhibition of IFNγ
CC(C(O)c1ccc(O)cc1)N1CCC(Cc2ccccc2)CC1 (racemic) [ifenprodil erythro racemate, ifenprodil]	strong inhibitory activity	1500 pg/mL	66%
CC(NCCc1ccc(O)cc1)C(O)c1ccc(O)cc1 (racemic) [ritodrine racemate, ritodrine]	strong inhibitory activity	1500 pg/mL	66%
